Data from PubChem BioAssay AID1259407 (Chemical Carcinogenesis Research Information System (CCRIS), 2018).
Calls of active or inactive are those of the source. No rule for the calls is given here.

System: CCRIS mutagenicity, Ames/micronucleus/aberration tests
Test: CCRIS mutagenicity studies
Excerpt: The CCRIS database contains chemical records with carcinogenicity, mutagenicity, tumor promotion, and tumor inhibition test results. It was developed by the National Cancer Institute (NCI). Data are derived from studies cited in primary journals, current awareness tools, NCI reports, and other sources. Test results have been reviewed by experts in carcinogenesis and mutagenesis.
CCRIS provides historical information from the years 1985 - 2011. It is no longer updated.
This is an archive assay for CCRIS mutagenicity studies.

Measured: mutagenic call

CN(C)N=O
inactive: Test System: AMES SALMONELLA TYPHIMURIUM, Strain/Indicator: TA1535ER, Metabolic Activation: NONE, Method: STANDARD PLATE inactive; negative | Test System: AMES SALMONELLA TYPHIMURIUM, Strain/Indicator: TA2659, Metabolic Activation: NONE, Method: PREINCUBATION inactive; negative | Test System: AMES SALMONELLA TYPHIMURIUM, Strain/Indicator: YG7108E, Metabolic Activation: NONE, Method: STANDARD PLATE inactive; negative | Test System: AMES SALMONELLA TYPHIMURIUM, Strain/Indicator: YG7108R, Metabolic Activation: NONE, Method: STANDARD PLATE inactive; negative | Test System: AMES SALMONELLA TYPHIMURIUM, Strain/Indicator: YG7119, Metabolic Activation: S-9, Method: PREINCUBATION inactive; negative | Test System: CHINESE HAMSTER V-79, Strain/Indicator: V-79/6-THIOGUANINE, Metabolic Activation: NONE, Method: STANDARD PLATE inactive; negative | Test System: CHINESE HAMSTER V-79, Strain/Indicator: V-79/OUABAIN, Metabolic Activation: NONE, Method: STANDARD PLATE inactive; negative | Test System: E. COLI, Strain/Indicator: WP2 (HCR), Metabolic Activation: RAT, LIVER, MICROSOMES, KANECHLOR 500, Method: PREINCUBATION inactive; negative | Test System: E. COLI, Strain/Indicator: WP2 UVRA, Metabolic Activation: HAMSTER, LIVER, S-9, AROCLOR 1254, Method: PREINCUBATION inactive; negative | Test System: E. COLI, Strain/Indicator: WP2 UVRA, Metabolic Activation: HAMSTER, LIVER, S-9, Method: PREINCUBATION inactive; negative | Test System: E. COLI, Strain/Indicator: WP2 UVRA, Metabolic Activation: MOUSE, LIVER, S-9, AROCLOR 1254, Method: PREINCUBATION inactive; negative | Test System: E. COLI, Strain/Indicator: WP2 UVRA, Metabolic Activation: MOUSE, LIVER, S-9, Method: PREINCUBATION inactive; negative | Test System: E. COLI, Strain/Indicator: WP2 UVRA, Metabolic Activation: NONE, Method: PREINCUBATION inactive; negative | Test System: E. COLI, Strain/Indicator: WP2 UVRA, Metabolic Activation: RAT, LIVER, S-9, AROCLOR 1254, Method: PREINCUBATION inactive; negative | Test System: E. COLI, Strain/Indicator: WP2 UVRA, Metabolic Activation: RAT, LIVER, S-9, Method: PREINCUBATION inactive; negative
active: Test System: AMES SALMONELLA TYPHIMURIUM, Strain/Indicator: TA1975, Metabolic Activation: RAT, LIVER, S-9, AROCLOR 1254, Method: PREINCUBATION active; positive | Test System: AMES SALMONELLA TYPHIMURIUM, Strain/Indicator: TA2410, Metabolic Activation: NONE, Method: HOST-MEDIATED active; positive | Test System: AMES SALMONELLA TYPHIMURIUM, Strain/Indicator: TA2638, Metabolic Activation: NONE, Method: PREINCUBATION active; positive | Test System: AMES SALMONELLA TYPHIMURIUM, Strain/Indicator: TA2678, Metabolic Activation: NONE, Method: HOST-MEDIATED active; positive | Test System: AMES SALMONELLA TYPHIMURIUM, Strain/Indicator: YG7100, Metabolic Activation: S-9, Method: PREINCUBATION active; positive | Test System: AMES SALMONELLA TYPHIMURIUM, Strain/Indicator: YG7104, Metabolic Activation: RAT LIVER S-9, ETHANOL (4%), Method: PREINCUBATION active; positive | Test System: AMES SALMONELLA TYPHIMURIUM, Strain/Indicator: YG7104, Metabolic Activation: S-9, Method: PREINCUBATION active; positive | Test System: AMES SALMONELLA TYPHIMURIUM, Strain/Indicator: YG7104ER, Metabolic Activation: NONE, Method: STANDARD PLATE active; positive | Test System: AMES SALMONELLA TYPHIMURIUM, Strain/Indicator: YG7108, Metabolic Activation: RAT LIVER S-9, ETHANOL (4%), Method: PREINCUBATION active; positive | Test System: AMES SALMONELLA TYPHIMURIUM, Strain/Indicator: YG7108, Metabolic Activation: S-9, Method: PREINCUBATION active; positive | Test System: AMES SALMONELLA TYPHIMURIUM, Strain/Indicator: YG7108ER, Metabolic Activation: NONE, Method: STANDARD PLATE active; positive | Test System: AMES SALMONELLA TYPHIMURIUM, Strain/Indicator: YG7112, Metabolic Activation: S-9, Method: PREINCUBATION active; positive | Test System: AMES SALMONELLA TYPHIMURIUM, Strain/Indicator: YG7113, Metabolic Activation: S-9, Method: PREINCUBATION active; positive | Test System: CHINESE HAMSTER V-79, Strain/Indicator: V-79 (HPRT)/6-THIOGUANINE, Metabolic Activation: RAT, HEPATOCYTES active; positive | Test System: CHINESE HAMSTER V-79, Strain/Indicator: V-79 (HPRT)/6-THIOGUANINE, Metabolic Activation: RAT, HEPATOMA, H4IIE CELLS active; positive | Test System: CHINESE HAMSTER V-79, Strain/Indicator: V-79 (HPRT)/6-THIOGUANINE, Metabolic Activation: RAT, LIVER, S-9, AROCLOR 1254 active; positive | Test System: CHINESE HAMSTER V-79, Strain/Indicator: V-79/6-THIOGUANINE, Metabolic Activation: RAT, HEPATOCYTES, BUTYLATED HYDROXYANISOLE, Method: STANDARD PLATE active; positive | Test System: CHINESE HAMSTER V-79, Strain/Indicator: V-79/6-THIOGUANINE, Metabolic Activation: RAT, HEPATOCYTES, Method: STANDARD PLATE active; positive | Test System: CHINESE HAMSTER V-79, Strain/Indicator: V-79/6-THIOGUANINE, Metabolic Activation: RAT, LIVER, S-15, PHENOBARBITAL, Method: STANDARD PLATE active; positive | Test System: CHINESE HAMSTER V-79, Strain/Indicator: V-79/8-AZAGUANINE, Metabolic Activation: RAT, LIVER, S-15, PHENOBARBITAL, Method: STANDARD PLATE active; positive | Test System: CHINESE HAMSTER V-79, Strain/Indicator: V-79/OUABAIN, Metabolic Activation: CELL-MEDIATED, Method: STANDARD PLATE active; positive | Test System: CHINESE HAMSTER V-79, Strain/Indicator: V-79/OUABAIN, Metabolic Activation: FREE MICROSOMES M, LIVER, Method: STANDARD PLATE active; positive | Test System: CHINESE HAMSTER V-79, Strain/Indicator: V-79/OUABAIN, Metabolic Activation: HAMSTER, HEPATOCYTES, Method: CELL-MEDIATED active; positive | Test System: CHINESE HAMSTER V-79, Strain/Indicator: V-79/OUABAIN, Metabolic Activation: RAT, HEPATOCYTES, BUTYLATED HYDROXYANISOLE, Method: STANDARD PLATE active; positive | Test System: CHINESE HAMSTER V-79, Strain/Indicator: V-79/OUABAIN, Metabolic Activation: RAT, HEPATOCYTES, Method: STANDARD PLATE active; positive | Test System: CHO/HGPRT, Strain/Indicator: CHO-K1-BH4, Metabolic Activation: MOUSE, IN VIVO, Method: HOST-MEDIATED active; positive | Test System: E. COLI, Strain/Indicator: WP2, Metabolic Activation: NONE, Method: STANDARD PLATE active; positive | Test System: E. COLI, Strain/Indicator: WP2, Metabolic Activation: RAT, LIVER, S-9, AROCLOR 1254, Method: STANDARD PLATE active; positive | Test System: E. COLI, Strain/Indicator: WP2 UVRA, Metabolic Activation: NONE, Method: STANDARD PLATE active; positive | Test System: E. COLI, Strain/Indicator: WP2 UVRA, Metabolic Activation: RAT, LIVER, S-9, AROCLOR 1254, Method: STANDARD PLATE active; positive | Test System: MOUSE LYMPHOMA, Strain/Indicator: L5178Y (TK+/TK-), Metabolic Activation: RAT, LIVER, S-9, AROCLOR 1254, Method: SUSPENSION/PLATE active; positive | Test System: MOUSE LYMPHOMA, Strain/Indicator: L5178Y (TK+/TK-), Metabolic Activation: RAT, LIVER, S-9, Method: SUSPENSION/PLATE active; positive | Test System: UDS HUMAN CELLS, Strain/Indicator: THY INCORP (NON-S-PHASE), Metabolic Activation: NONE, Method: AUTORADIOGRAPHY active; positive | Test System: UDS HUMAN CELLS, Strain/Indicator: THY INCORP (NON-S-PHASE), Metabolic Activation: RAT, LIVER, S-9, Method: AUTORADIOGRAPHY active; positive | Test System: UDS HUMAN FIBROBLASTS, Strain/Indicator: THY INCORP (NON-S-PHASE), Metabolic Activation: NONE, Method: AUTORADIOGRAPHY active; positive | Test System: UDS HUMAN FIBROBLASTS, Strain/Indicator: THY INCORP (NON-S-PHASE), Metabolic Activation: RAT, LIVER, S-9, Method: LIQUID SCINTILLATION COUNTING active; positive | Test System: UDS MONKEY HEPATOCYTES, Strain/Indicator: THY INCORP, Metabolic Activation: AROCLOR 1254, Method: AUTORADIOGRAPHY active; positive | Test System: UDS MONKEY HEPATOCYTES, Strain/Indicator: THY INCORP, Metabolic Activation: NONE, Method: AUTORADIOGRAPHY active; positive | Test System: UDS MOUSE HEPATOCYTES, Metabolic Activation: NONE, Method: IN VIVO-IN VITRO active; positive | Test System: UDS RAT HEPATOCYTES, Strain/Indicator: BROMODEOXYURIDINE INCORP, Metabolic Activation: NONE, Method: FLOW CYTOMETRIC ANALYSIS active; positive | Test System: UDS RAT HEPATOCYTES, Strain/Indicator: THY INCORP, Metabolic Activation: NONE, Method: AUTORADIOGRAPHY active; positive | Test System: UDS RAT HEPATOCYTES, Strain/Indicator: THY INCORP, Metabolic Activation: NONE, Method: LIQUID SCINTILLATION COUNTING active; positive | Test System: UDS RODENT HEPATOCYTES, Strain/Indicator: THY INCORP (NON-S-PHASE), Method: AUTORADIOGRAPHY active; positive | Test System: UDS RODENT HEPATOCYTES, Strain/Indicator: THY INCORP (NON-S-PHASE), Method: LIQUID SCINTILLATION COUNTING active; positive | Test System: UDS, Strain/Indicator: HEPG2/THYMIDINE INCORPORATION, Metabolic Activation: NONE, Method: AUTORADIOGRAPHY active; positive
